In patent publication US20080039471A1, “Composition and method to inhibit tissue plasminogen activator (tPA) - potentiated neurotoxicity” (priority 2006, published 2008):

Tests used:
[1] = systematic administration (Jiang et al.); cited from earlier work
[2] = single 2-h infusion every 4 weeks, cited from earlier work
[3] = test system: embryonic (E18) rat cortical and striatal neurons; test: Morphological changes, H/H and tPA insult (Example 2); assay type: cell-based
Description: (§1) A mixed culture of embryonic (E18) rat cortical and striatal neurons was cultured for 13 days in neurobasal medium (Invitrogen), then insulted by hypoglycemia/hypoxia (H/H) conditions for 6 hours, or a combination of H/H and 20 μg/ml tPA. The H/H conditions were 1.2 mM glucose (normally 25 mM in culture medium) and the absence of oxygen for 6 hours. (Following H/H conditions, the cultures were returned to the typical conditions of 25 mM glucose medium and 95% ambient air plus 5% CO2.)
(§2) In a further experiment, cells that were under H/H conditions and also treated with the tPA were divided into groups, which were either co-treated or post-treated (i.e., during or after the 6 hour insult period) with control vehicle or each of PAN-811 at concentrations of 1.25, 2.5, 5 and 10 μM.
The experimental results were evaluated by morphological changes, and LDH and MTS analyses.

[4] = test system: embryonic (E18) rat cortical and striatal neurons; test: LDH assay, hypoglycemia/hypoxia (H/H) and tPA insult (Example 2); assay type: cell-based
Description: (§3) The lactate dehydrogenase (LDH) assay (Promega) is based on the reduction of NAD by the action of LDH. The resulting reduced NAD (NADH) is utilized in the stoichiometric conversion of a tetrazolium dye. If cell-free aliquots of medium from cultures given different treatments are assayed, then the amount of LDH activity can be used as an indicator of relative cell death as well as a function of membrane integrity. A 50 μl aliquot of culture medium from a well in tested 96-well plate is transferred into a well in unused plate and supplemented with 25 μl of equally-mixed Substrate, Enzyme and Dye Solutions (Sigma). The preparation is incubated at room temperature for 20-30 minutes, and then measured spectrophotometrically at wavelength of 490 nm.
In this example, PAN-811 was dissolved in PEG:EtOH (7:3) to a concentration of 25 mM, and further diluted in neurobasal medium to final concentrations of 1.25, 2.5, 5 and 10 μM. The control vehicle is 1:10,000 PEG:EtOH (7:3 in BSS).
as §1, §2

[5] = test system: embryonic (E18) rat cortical and striatal neurons; test: LDH assay, glutamate / tPA insult (Example 1); assay type: cell-based
Description: For this example PAN-811 was dissolved in PEG:EtOH (7:3) to a concentration of 25 mM, and further diluted in neurobasal medium to a final concentration of 2 μM. The control vehicle is 1:12,500 PEG:EtOH (7:3 in BSS).
(§4) A mixed culture of embryonic (E18) rat cortical and striatal neurons was cultured for 22 days in 50% antioxidative (AO) neurobasal medium (made by replacing 50% of the neurobasal culture medium with a medium comprised of neurobasal plus B27 supplement (minus AO, i.e., without the antioxidants vitamin E, vitamin E acetate, 2.5 mg/L superoxide dismutase, 2.5 mg/L catalase, and 1 mg/L glutathione) (from Invitrogen)), and then divided into test groups in accordance with the following scheme: (1) not insulted (control); (2) insulted with 15 μM glutamate; (3) insulted with 20 μg/ml tPA; or (4) insulted with both 15 μM glutamate and 20 μg/ml tPA, for a period of 24 hours. In a further test category, neurons that were to be insulted for 24 hours with the combination of 15 μM glutamate and 20 μg/ml tPA, were divided into groups in which (1) cells were not pre-treated prior to insult; (2) were pretreated overnight with 1:12,500 vehicle (used for PAN-811), or (3) were pre-treated overnight with PAN-811 (in vehicle).
as §3

[6] = test system: embryonic (E18) rat cortical and striatal neurons; test: Morphological changes, glutamate / tPA insult (Example 1); assay type: cell-based; settings: 15 μM glutamate, 20 μg/ml tPA, insult 24 hours
Description: as §4
The experimental results were evaluated by morphological changes, lactate dehydrogenase (LDH) and MTS (mitochondrial function) analyses.

[7] = test system: embryonic (E18) rat cortical and striatal neurons; test: MTS (mitochondrial function) assay, glutamate / tPA insult (Example 1); assay type: cell-based; settings: 15 μM glutamate, 20 μg/ml tPA, insult 24 hours
Description: as §4, with “In a further test category, neurons that were to be insulted for 24 hours with the combination of 15 μM glutamate and 20 μg/ml tPA, were divided into groups in which (1) cells were not pre-treated prior to insult; (2) were pretreated overnight with 1:12,500 vehicle (used for PAN-811), or (3) were pre-treated overnight with PAN-811 (in vehicle).” left out
The 3-(4,5-dimethylthiazol-2-yl)-5-(3-carboxymethoxyphenyl)-2-(4-sulfophenyl)-2H-tetrazolium (MTS) assay (Promega) is routinely used to evaluate mitochondrial function, and reduced readings are correlated with neuronal cell death. The MTS tetrazolium compound is reduced in metabolically active mitochondria into a colored formazan product that is soluble in tissue culture medium, and can be detected via its absorbance 490 nm. […] The absorbance at 490 nm was recorded using a Bio-Rad 96 well plate reader.

[8] = test system: tPA-potentiated, NMDA-mediated, excitotoxic neuronal death; settings: cited from earlier work
[9] = test system: embryonic (E18) rat cortical and striatal neurons; test: MTS assay, H/H and tPA insult (Example 2); assay type: cell-based; settings: H/H 6 hours combined with 20 μg/ml tPA
Description: The 3-(4,5-dimethylthiazol-2-yl)-5-(3-carboxymethoxyphenyl)-2-(4-sulfophenyl)-2H-tetrazolium (MTS) assay (Promega) is routinely used to evaluate mitochondrial function, and reduced readings are correlated with neuronal cell death. The MTS tetrazolium compound is reduced in metabolically active mitochondria into a colored formazan product that is soluble in tissue culture medium, and can be detected via its absorbance 490 nm. 10 μl of MTS reagent (Promega) are added to each well of the 96 well assay plates containing the samples in 50 μl of culture medium. The plate is then incubated in a humidified, 5% CO2 atmosphere at 37° C. for 1-2 hours until the color is fully developed. The absorbance at 490 nm was recorded using a Bio-Rad 96 well plate reader.
as §1

**Q.** For `NC(=S)N/N=C/c1ncccc1N` [PAN-811, 3-aminopyridine-2-carboxaldehyde thiosemicarbazone], which “passage of the BBB” value [1] is on record?
**A.** will pass the BBB

**Q.** And the well tolerated dose ([2]; 46 courses of therapy)?
**A.** up to 105 mg/m^2

**Q.** And the dose limiting toxicity ([2]; doses up to 105 mg/m^2)?
**A.** not identified

**Q.** What about the neuronal morphology ([3]; co- or post-treatment, 1.25-10 μM PAN-811, H/H and tPA conditions) of the same molecule?
**A.** preserved neuronal morphology

**Q.** What about the “neuroprotection (LDH readings)” value ([4]; 1.25 μM PAN-811, H/H and tPA) of the same molecule?
**A.** effective in significantly reducing LDH readings

**Q.** What about the “protection (LDH)” value ([4]; 5 μM PAN-811 post-insult (H/H and tPA)) of the same molecule?
**A.** 51%

**Q.** What about the “decrease of LDH reading” value ([4]; co-treated with 5 μM PAN-811 during H/H and tPA insult) of the same molecule?
**A.** 23%

**Q.** What about the “dose dependence of protection” value ([4]; co-treatment or post-treatment, 1.25, 2.5, 5 and 10 μM, H/H and tPA) of the same molecule?
**A.** showed a dose response correlation

**Q.** What about the “reduction of LDH reading as compared to no pre-treatment or control vehicle” value ([5]; pre-treated overnight with 2 μM PAN-811, insult 15 μM glutamate and 20 μg/ml tPA, 24 hours) of the same molecule?
**A.** about 11%

**Q.** For `N[C@@H](CCC(=O)O)C(=O)O` [glutamate, reference compound], which morphology of neurons [6] is on record?
**A.** strong neuronal cell death

**Q.** What about the “reduction in the MTS reading over the control” value [7] of the same molecule?
**A.** 13%

**Q.** What about the “increase in LDH over the control” value ([5]; 15 μM glutamate, 20 μg/ml tPA, insult 24 hours) of the same molecule?
**A.** 4.4 fold

**Q.** What does the source list for `Cl.Cl.N=C(N)c1ccc(C=C2CCCCC(=Cc3ccc(C(=N)N)cc3)C2=O)cc1` [tPA-Stop™, 2,7-bis-(4-amidino-benzylidene)-cycloheptan-1-one dihydrochloride]?
**A.** effect on alpha-amino-2,3-dihydro-5-methyl-3-oxo-4-isoxazole propanoic acid or kainate-mediated necrosis [8]: fails to modulate; effect on tPA-potentiated, NMDA-mediated, excitotoxic neuronal death [8]: effective in reducing

**Q.** For “tPA: Recombinant tissue-type plasminogen activator, a thrombolytic-acting drug approved for ischemic stroke”, which morphology of neurons [6] is on record?
**A.** neurons remained healthy

**Q.** What about the “decrease of MTS reading” value [9] of the same molecule?
**A.** 51%

**Q.** What about the “morphology, neuronal cell death” value ([3]; H/H combined with 20 μg/ml tPA, by 17 hours post-insult) of the same molecule?
**A.** robust neuronal cell death

**Q.** What about the “reduction in the MTS reading over the control” value [7] of the same molecule?
**A.** did not cause any reduction

**Q.** What about the “enhancement in the LDH reading over control” value ([4]; H/H 6 hours combined with 20 μg/ml tPA) of the same molecule?
**A.** 3.3 fold

**Q.** And the “toxicity to neurons by LDH assay” value ([5]; 20 μg/ml tPA alone, 24 hours)?
**A.** not toxic
